Reference: patent US20250313533A1, “QUINOLINE CARBOXYLIC ACID ESTER COMPOUND AND PREPARATION METHOD AND USE THEREOF” (priority 2019, published 2025)

What was measured:
[1] = system: pathogenic bacteria causing black rot in Chinese cabbages; assay: In vitro bactericidal activity, black rot in Chinese cabbages; type: cell-based, xanthomonas; conditions: Xanthomonas, read-out: inhibitory rate; for inhibition at 1 ppm: dosage 1 ppm; for inhibition at 5 ppm: dosage 5 ppm
[2] = system: pathogenic bacteria causing fire blight in pears; assay: In vitro bactericidal activity, fire blight in pears; type: cell-based, erwinia; conditions: Erwinia, read-out: inhibitory rate; for inhibition at 1 ppm: dosage 1 ppm; for inhibition at 5 ppm: dosage 5 ppm
[3] = system: stem rot in sweet potatoes; assay: whole plant or invertebrate; conditions: read-out: efficacy against stem rot in sweet potatoes
[4] = system: bacterial blight in rice; assay: whole plant or invertebrate; conditions: Oryza sativa, read-out: efficacy against bacterial blight in rice
[5] = system: pathogenic bacteria causing bacterial angular leaf spot in cucumbers; assay: In vitro bactericidal activity, bacterial angular leaf spot in cucumbers; type: cell-based, pseudomonas; conditions: read-out: inhibitory rate; for inhibition at 1 ppm: dosage 1 ppm; for inhibition at 5 ppm: dosage 5 ppm
[6] = system: pathogenic bacteria causing fruit blotch in watermelons; assay: In vitro bactericidal activity, fruit blotch in watermelons; type: cell-based, acidovorax; conditions: read-out: inhibitory rate; for inhibition at 1 ppm: dosage 1 ppm; for inhibition at 5 ppm: dosage 5 ppm
[7] = system: black shank in potatoes; assay: Living crops in vivo protective activity, potatoes (root irrigation); conditions: Solanum tuberosum, read-out: efficacy against black shank in potatoes; for pest or weed control at 5 ppm: dosage 5 ppm; for pest or weed control at 10 ppm: dosage 10 ppm
Description: Root irrigation was carried out on the potatoes for tests according to the designed concentration of the agents. The dosage for each plant was 200 mL and was kept consistent (also for the control). The black shank bacteria were inoculated on the second day after the application. The results were investigated according to the disease condition.

[8] = system: soft rot in Chinese cabbages; assay: whole plant or invertebrate; conditions: 48 h, read-out: efficacy against soft rot in Chinese cabbages
[9] = system: indoor potted cucumber seedlings; assay: Effect of improving growth and development of crops; type: in vivo; parameters: Rate of growth rate increase (%): concentration or dose not given beside the values; conditions: versus blank control; for Rate of chlorophyll content increase (%) / Rate of leaf area increase (%): 14 days after application; for Rate of growth rate increase (%): plant height 14 days after application; for Rate of leaf area increase (%): second leaf
Description: Taking indoor potted cucumber seedlings as an example, the influence of the compound disclosed herein on growth rate of plant height, chlorophyll content, leaf area, etc. of crops was mainly evaluated.
The plant heights of plants before application and 14 days after the application were measured.
The growth rates were calculated according to formula (1)
The rates of the growth rate increase (%) were calculated according to formula (2)
The longitudinal and transverse diameters (i.e., leaf length and leaf width, respectively, wherein the leaf length is the distance from the base to the tip of a leaf, and leaf width is the measured value of the upper shoulder width of the leaf) of the second leaf of plants before application and 14 days after the application were measured.
The leaf areas were calculated according to formula (3)
The leaf area increases were calculated according to formula (4)
The rates of the leaf area increases were calculated according to formula (5)
The chlorophyll contents of leaves were measured by using a chlorophyll measuring instrument (model: SPAD-520 Plus).
The chlorophyll content increases were calculated according to formula (6)
The rates of the chlorophyll content increases were calculated according to formula (7)

[10] = system: pathogenic bacteria causing black shank in potatoes; assay: In vitro bactericidal activity, black shank in potatoes; type: cell-based; conditions: read-out: inhibitory rate; for inhibition at 1 ppm: dosage 1 ppm; for inhibition at 5 ppm: dosage 5 ppm
[11] = system: pathogenic bacteria causing bacterial wilt in cassava; assay: organism not typed; type: cell-based; conditions: read-out: inhibitory rate
[12] = system: pathogenic bacteria causing stem rot in sweet potatoes; assay: In vitro bactericidal activity, stem rot in sweet potatoes; type: cell-based, dikia; conditions: read-out: inhibitory rate; for inhibition at 1 ppm: dosage 1 ppm; for inhibition at 5 ppm: dosage 5 ppm
[13] = system: pathogenic bacteria causing bacterial blight in rice; assay: whole plant or invertebrate; type: cell-based, xanthomonas; conditions: read-out: inhibitory rate
[14] = system: pathogenic bacteria causing bacterial wilt in tobacco; assay: whole plant or invertebrate; type: cell-based, ralstonia; conditions: read-out: inhibitory rate
[15] = system: fruit blotch in watermelons; assay: whole plant or invertebrate; conditions: read-out: efficacy against fruit blotch in watermelons
[16] = system: bacterial wilt in tobacco; assay: whole plant or invertebrate; conditions: Nicotiana tabacum, read-out: efficacy against bacterial wilt in tobacco
[17] = system: cucumber seedlings; assay: Safety for plant growth after application; type: in vivo; conditions: dosage 200 ppm
Procedure, shortened: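 Using pot-grown cucumber seedlings indoors, we recorded plant height growth rate together with chlorophyll content and leaf area following compound application.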

Row | SMILES | inhibition at 1 ppm [1] [%] | inhibition at 5 ppm [1] [%] | inhibition at 1 ppm [2] [%] | inhibition at 5 ppm [2] [%] | pest or weed control at 5 ppm [3] [%] | pest or weed control at 10 ppm [3] [%] | pest or weed control at 5 ppm [4] [%] | pest or weed control at 10 ppm [4] [%] | inhibition at 1 ppm [5] [%] | inhibition at 5 ppm [5] [%] | inhibition at 1 ppm [6] [%] | inhibition at 5 ppm [6] [%] | pest or weed control at 5 ppm [7] [%] | pest or weed control at 10 ppm [7] [%] | pest or weed control at 5 ppm [8] [%] | pest or weed control at 10 ppm [8] [%] | Rate of chlorophyll content increase (%) [9] [%] | Rate of growth rate increase (%) [9] [%] | Rate of leaf area increase (%) [9] [%] | inhibition at 1 ppm [10] [%] | other results
1 | COCCOC(=O)c1cn(C2CC2)c2cc(F)ccc2c1=O [Compound 195] | ≥ 90 | ≥ 90 | ≥ 90 | ≥ 90 | ≥ 90 | ≥ 90 | ≥ 90 | ≥ 90 | ≥ 90 | ≥ 90 | ≥ 90 | ≥ 90 | ≥ 90 | ≥ 90 | ≥ 90 | ≥ 90 | 12 | 7 | 9 | ≥ 90 | inhibition at 5 ppm [10]: ≥ 90%; inhibition at 1 ppm [11]: ≥ 90%; inhibition at 5 ppm [11]: ≥ 90%; inhibition at 1 ppm [12]: ≥ 90%; inhibition at 5 ppm [12]: ≥ 90%; inhibition at 1 ppm [13]: ≥ 90%; inhibition at 5 ppm [13]: ≥ 90%; inhibition at 1 ppm [14]: ≥ 90%; inhibition at 5 ppm [14]: ≥ 90%; pest or weed control at 5 ppm [15]: ≥ 90%; pest or weed control at 10 ppm [15]: ≥ 90%; pest or weed control at 5 ppm [16]: ≥ 90%; pest or weed control at 10 ppm [16]: ≥ 90%; safety for plant growth (discoloration, necrosis, wilt, malformation) [17]: safe for plant growth
2 | O=C(OCCCO)c1cn(C2CC2)c2cc(F)ccc2c1=O [Compound 207] | ≥ 90 | ≥ 90 | ≥ 90 | ≥ 90 | ≥ 90 | ≥ 90 | ≥ 90 | ≥ 90 | ≥ 90 | ≥ 90 | ≥ 90 | ≥ 90 | ≥ 90 | ≥ 90 | ≥ 90 | ≥ 90 | 13 | 6 | 10 | ≥ 90 | inhibition at 5 ppm [10]: ≥ 90%; inhibition at 1 ppm [11]: ≥ 90%; inhibition at 5 ppm [11]: ≥ 90%; inhibition at 1 ppm [12]: ≥ 90%; inhibition at 5 ppm [12]: ≥ 90%; inhibition at 1 ppm [13]: ≥ 90%; inhibition at 5 ppm [13]: ≥ 90%; inhibition at 1 ppm [14]: ≥ 90%; inhibition at 5 ppm [14]: ≥ 90%; pest or weed control at 5 ppm [15]: ≥ 90%; pest or weed control at 10 ppm [15]: ≥ 90%; pest or weed control at 5 ppm [16]: ≥ 90%; pest or weed control at 10 ppm [16]: ≥ 90%; safety for plant growth (discoloration, necrosis, wilt, malformation) [17]: safe for plant growth
3 | COCCCOC(=O)c1cn(C2CC2)c2cc(F)ccc2c1=O [Compound 208] | ≥ 90 | ≥ 90 | ≥ 90 | ≥ 90 | ≥ 90 | ≥ 90 | ≥ 90 | ≥ 90 | ≥ 90 | ≥ 90 | ≥ 90 | ≥ 90 | ≥ 90 | ≥ 90 | ≥ 90 | ≥ 90 | 12 | 5 | 11 | ≥ 90 | inhibition at 5 ppm [10]: ≥ 90%; inhibition at 1 ppm [11]: ≥ 90%; inhibition at 5 ppm [11]: ≥ 90%; inhibition at 1 ppm [12]: ≥ 90%; inhibition at 5 ppm [12]: ≥ 90%; inhibition at 1 ppm [13]: ≥ 90%; inhibition at 5 ppm [13]: ≥ 90%; inhibition at 1 ppm [14]: ≥ 90%; inhibition at 5 ppm [14]: ≥ 90%; pest or weed control at 5 ppm [15]: ≥ 90%; pest or weed control at 10 ppm [15]: ≥ 90%; pest or weed control at 5 ppm [16]: ≥ 90%; pest or weed control at 10 ppm [16]: ≥ 90%; safety for plant growth (discoloration, necrosis, wilt, malformation) [17]: safe for plant growth
4 | COc1cc2c(cc1F)c(=O)c(C(=O)OCCO)cn2C1CC1 [Compound 264] | ≥ 90 | ≥ 90 | ≥ 90 | ≥ 90 | ≥ 90 | ≥ 90 | ≥ 90 | ≥ 90 | ≥ 90 | ≥ 90 | ≥ 90 | ≥ 90 | ≥ 90 | ≥ 90 | ≥ 90 | ≥ 90 | 12 | 9 | 11 | ≥ 90 | inhibition at 5 ppm [10]: ≥ 90%; inhibition at 1 ppm [11]: ≥ 90%; inhibition at 5 ppm [11]: ≥ 90%; inhibition at 1 ppm [12]: ≥ 90%; inhibition at 5 ppm [12]: ≥ 90%; inhibition at 1 ppm [13]: ≥ 90%; inhibition at 5 ppm [13]: ≥ 90%; inhibition at 1 ppm [14]: ≥ 90%; inhibition at 5 ppm [14]: ≥ 90%; pest or weed control at 5 ppm [15]: ≥ 90%; pest or weed control at 10 ppm [15]: ≥ 90%; pest or weed control at 5 ppm [16]: ≥ 90%; pest or weed control at 10 ppm [16]: ≥ 90%; safety for plant growth (discoloration, necrosis, wilt, malformation) [17]: safe for plant growth
